Assay results taken from ChEMBL document CHEMBL1201862, “PubChem BioAssay data set” (2004).
Calls of active or inactive are those of the source.

Assays:
[1] = target: Heat shock protein HSP 90-alpha (Homo sapiens, UniProt P07900); experiment: Luminescence-based dose response biochemical high throughput screening assay for inhibitors of the Heat Shock Protein 90 (HSP90). [Related pubchem assays: 1831 (Summary AID.), 1846 (Confirmation screen.), 1789 (Primary screen.)]
[2] = Glucagon-like peptide 1 release potency, NCI-H716 cell line, dose-response, half-maximal inhibitory concentration (AID 1117344); type: functional, cell-based
[3] = Dose-response inhibition of insulin secretion in a rat insulinoma line at 5 mM glucose (AID 1117331); type: functional, cell-based; details: INS-1E
[4] = half-maximal inhibitory concentration for glucagon-like peptide-1 release, STC-1 cell line, dose-response (AID 1117345); type: functional, cell-based
[5] = NIH:OVCAR-3 ovarian cancer cell cytotoxicity, dose response, PAX8 inhibitor project, plate reader, dry powder samples (AID 743044); type: functional, cell-based
[6] = cytotoxicity dependent on PAX8, dose response, cell-based, plate reader, dry powder (AID 743049); type: functional
[7] = cytotoxicity in OV-90 ovarian cancer cells, dose response, PAX8 inhibitor project, cell-based, plate reader, dry powder, SA8 (AID 743149); type: functional
[8] = cytotoxicity in COV362 ovarian cancer cells, dose response, cytotoxicity control for PAX8 inhibitor project, cell-based, plate reader, dry powder, SA12 (AID 743144); type: functional
[9] = cytotoxicity in COV434 cells, dose response, cytotoxicity control for PAX8 inhibitor project, cell-based, plate reader, dry powder, SA7 (AID 743145); type: functional
[10] = PAX5 activity inhibitors, dose response, selectivity assay for PAX8 inhibitor project, cell-based, plate reader, dry powder samples (AID 743047); type: functional;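 note: HEK293 cells carrying a Pax5 driven CD19 promoter luciferase reporter; potency of inhibitors that lower reporter luminescence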
[11] = IGROV1 ovarian cancer cell cytotoxicity, dose response, PAX8 inhibitor project, plate reader, dry powder samples (AID 743043); type: functional, cell-based; details: IGROV-1
Paired box protein Pax-8 = Paired box protein Pax-8 (Homo sapiens, UniProt Q06710); experiment: inhibitors of PAX8-driven TPO luciferase reporter, dose response, RMG-I cells, cherry-pick (AID 687027); type: functional, cell-based;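 note: luciferase reporter driven by Pax8 target thyroperoxidase promoter measured by SteadyGlo luminescence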
[12] = cytotoxicity in OVCAR4 cells, dose response, cytotoxicity control for PAX8 inhibitor project, cell-based, plate reader, dry powder, SA11 (AID 743150); type: functional; details: OVCAR-4
[13] = PAX2 cell-based inhibition, dose response, selectivity assay for PAX8 inhibitor project, plate reader, dry powder samples (AID 743048); type: functional;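 note: HEK293 cells carrying a WT1 promoter luciferase reporter driven by expressed Pax2; potency is for inhibition of Pax2 driven reporter signal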
[14] = target: Aryl hydrocarbon receptor (Homo sapiens, UniProt P35869); experiment: Luminescence-based cell-based high throughput dose response assay for activators of the Aryl Hydrocarbon Receptor (AHR). [Related pubchem assays: 2796 (Primary screen (AHR activators in singlicate)), 2845 (Confirmation screen (AHR activators in triplicate)), 434939 (Counterscreen (PXR activators in triplicate)), 2804 (Summary (AHR activators))]; type: ADME
Protein Tat = target: T1, Protein Tat (Human immunodeficiency virus type 1 group M subtype B (isolate HXB2)(HIV-1), UniProt P04608); type: functional;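 note: tat binding to TAR RNA read out by fluorescence polarization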
T1 sequence (P04608 whole entry): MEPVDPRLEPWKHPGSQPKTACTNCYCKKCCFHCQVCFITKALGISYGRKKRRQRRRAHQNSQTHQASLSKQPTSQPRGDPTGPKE

[15] = target: T2, Rac GTPase-activating protein 1 (Homo sapiens, UniProt Q9H0H5); experiment: MgcRacGAP GTPase-activating activity inhibitors, confirmation, biochemical, ADP Hunter fluorescence, primary and confirmatory (AID 624330); type: functional
T2 sequence (Q9H0H5 whole entry): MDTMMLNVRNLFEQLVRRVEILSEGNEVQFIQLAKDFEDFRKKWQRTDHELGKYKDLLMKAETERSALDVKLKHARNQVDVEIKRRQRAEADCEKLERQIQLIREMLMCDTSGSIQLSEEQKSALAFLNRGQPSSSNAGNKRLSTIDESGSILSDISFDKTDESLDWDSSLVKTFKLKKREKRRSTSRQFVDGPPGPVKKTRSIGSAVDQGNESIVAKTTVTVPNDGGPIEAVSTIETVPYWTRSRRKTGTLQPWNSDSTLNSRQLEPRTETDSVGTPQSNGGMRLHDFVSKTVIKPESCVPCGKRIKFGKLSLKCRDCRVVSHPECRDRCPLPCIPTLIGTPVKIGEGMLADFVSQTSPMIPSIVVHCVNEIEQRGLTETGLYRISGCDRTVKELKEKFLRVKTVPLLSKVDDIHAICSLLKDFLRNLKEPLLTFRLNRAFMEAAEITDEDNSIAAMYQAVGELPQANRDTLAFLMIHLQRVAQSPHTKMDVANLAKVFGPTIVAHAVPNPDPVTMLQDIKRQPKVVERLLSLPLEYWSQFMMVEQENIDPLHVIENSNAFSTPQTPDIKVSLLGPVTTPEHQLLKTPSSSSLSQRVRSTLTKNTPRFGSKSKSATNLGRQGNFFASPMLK

[16] = THP-1 cell cytotoxicity, dose response, cytotoxicity control for Vif-APOBEC3G degradation inhibitor project, THP-1 cells (AID 1117359); type: functional; details: Human immunodeficiency virus 1, THP-1
[17] = target: T3, Polyadenylate-binding protein 1 (Homo sapiens, UniProt P11940); experiment: PABP1 MLLE–PAM2 interaction inhibitors, dose response, miRNA deadenylation inhibitor project, biochemical, fluorescence polarization, Cy5-PAM2 peptide, secondary (AID 602260); type: functional; details: read-out: IC50_Mean
Protein RecA = target: T4, Protein RecA (Mycobacterium tuberculosis, UniProt P9WHJ3); experiment: Fluorescence Cell-Free Homogeneous Dose Retest to Identify Inhibitors of RecA-Intein Splicing Activity. [Related pubchem assays (depositor defined):AID2097, AID2223, AID489010, AID492950]; type: functional
T4 sequence (P9WHJ3 whole entry): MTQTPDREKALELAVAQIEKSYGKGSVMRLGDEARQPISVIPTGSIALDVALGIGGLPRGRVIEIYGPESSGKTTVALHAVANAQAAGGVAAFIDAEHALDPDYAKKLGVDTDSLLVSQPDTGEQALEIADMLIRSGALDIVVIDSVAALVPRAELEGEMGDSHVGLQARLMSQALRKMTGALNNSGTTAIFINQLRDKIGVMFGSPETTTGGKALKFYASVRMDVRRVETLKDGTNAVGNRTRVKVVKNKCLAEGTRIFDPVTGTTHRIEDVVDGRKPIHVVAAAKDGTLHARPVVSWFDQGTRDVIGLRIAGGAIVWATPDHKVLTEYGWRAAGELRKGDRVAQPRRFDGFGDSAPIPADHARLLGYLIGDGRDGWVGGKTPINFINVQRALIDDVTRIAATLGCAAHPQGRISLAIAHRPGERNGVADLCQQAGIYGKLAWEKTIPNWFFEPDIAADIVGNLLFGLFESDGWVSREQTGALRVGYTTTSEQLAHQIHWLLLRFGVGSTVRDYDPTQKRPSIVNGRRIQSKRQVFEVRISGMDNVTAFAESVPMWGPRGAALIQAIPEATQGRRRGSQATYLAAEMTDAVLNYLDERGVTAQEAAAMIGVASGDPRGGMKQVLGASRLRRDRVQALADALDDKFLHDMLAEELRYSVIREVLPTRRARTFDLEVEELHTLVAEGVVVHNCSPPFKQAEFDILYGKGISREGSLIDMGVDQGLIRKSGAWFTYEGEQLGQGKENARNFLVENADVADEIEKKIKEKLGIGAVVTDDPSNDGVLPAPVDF

[18] = target: T3, Polyadenylate-binding protein 1; experiment: PABP1 MLLE–PAM2 binding inhibitor potency, dose response, biochemical, fluorescence polarization, FITC-PAM2 peptide (AID 602259); type: functional; details: read-out: IC50_Mean

T3 sequence (P11940 whole entry): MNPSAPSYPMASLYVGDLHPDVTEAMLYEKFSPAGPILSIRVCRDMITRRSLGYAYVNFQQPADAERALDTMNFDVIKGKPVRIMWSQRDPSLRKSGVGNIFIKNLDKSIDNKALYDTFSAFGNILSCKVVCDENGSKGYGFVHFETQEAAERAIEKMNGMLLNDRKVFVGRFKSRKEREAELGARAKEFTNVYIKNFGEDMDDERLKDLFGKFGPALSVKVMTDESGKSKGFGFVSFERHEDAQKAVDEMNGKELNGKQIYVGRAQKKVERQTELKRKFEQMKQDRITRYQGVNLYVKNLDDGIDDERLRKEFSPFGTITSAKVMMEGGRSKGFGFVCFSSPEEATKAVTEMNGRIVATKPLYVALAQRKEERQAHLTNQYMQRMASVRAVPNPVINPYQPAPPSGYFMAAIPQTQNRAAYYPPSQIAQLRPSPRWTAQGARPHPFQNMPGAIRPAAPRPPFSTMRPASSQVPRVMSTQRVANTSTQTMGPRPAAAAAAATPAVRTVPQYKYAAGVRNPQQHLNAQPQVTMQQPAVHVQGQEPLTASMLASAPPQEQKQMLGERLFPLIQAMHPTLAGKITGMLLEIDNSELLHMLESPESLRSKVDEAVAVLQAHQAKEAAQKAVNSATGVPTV
Chain of Paired box protein Pax-8 (Q06710 whole entry): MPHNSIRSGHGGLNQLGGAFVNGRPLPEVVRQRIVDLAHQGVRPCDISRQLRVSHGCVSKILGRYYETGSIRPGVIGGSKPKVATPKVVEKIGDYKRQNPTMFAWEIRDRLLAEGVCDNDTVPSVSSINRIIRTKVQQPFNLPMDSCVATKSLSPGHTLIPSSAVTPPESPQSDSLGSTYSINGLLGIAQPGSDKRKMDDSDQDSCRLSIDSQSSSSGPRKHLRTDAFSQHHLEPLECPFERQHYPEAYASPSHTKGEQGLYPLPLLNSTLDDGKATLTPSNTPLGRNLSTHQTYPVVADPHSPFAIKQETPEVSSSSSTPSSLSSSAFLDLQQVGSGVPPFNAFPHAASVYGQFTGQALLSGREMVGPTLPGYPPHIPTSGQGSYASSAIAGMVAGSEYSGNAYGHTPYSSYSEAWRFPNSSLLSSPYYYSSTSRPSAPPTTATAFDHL
Chain of Aryl hydrocarbon receptor (P35869 whole entry): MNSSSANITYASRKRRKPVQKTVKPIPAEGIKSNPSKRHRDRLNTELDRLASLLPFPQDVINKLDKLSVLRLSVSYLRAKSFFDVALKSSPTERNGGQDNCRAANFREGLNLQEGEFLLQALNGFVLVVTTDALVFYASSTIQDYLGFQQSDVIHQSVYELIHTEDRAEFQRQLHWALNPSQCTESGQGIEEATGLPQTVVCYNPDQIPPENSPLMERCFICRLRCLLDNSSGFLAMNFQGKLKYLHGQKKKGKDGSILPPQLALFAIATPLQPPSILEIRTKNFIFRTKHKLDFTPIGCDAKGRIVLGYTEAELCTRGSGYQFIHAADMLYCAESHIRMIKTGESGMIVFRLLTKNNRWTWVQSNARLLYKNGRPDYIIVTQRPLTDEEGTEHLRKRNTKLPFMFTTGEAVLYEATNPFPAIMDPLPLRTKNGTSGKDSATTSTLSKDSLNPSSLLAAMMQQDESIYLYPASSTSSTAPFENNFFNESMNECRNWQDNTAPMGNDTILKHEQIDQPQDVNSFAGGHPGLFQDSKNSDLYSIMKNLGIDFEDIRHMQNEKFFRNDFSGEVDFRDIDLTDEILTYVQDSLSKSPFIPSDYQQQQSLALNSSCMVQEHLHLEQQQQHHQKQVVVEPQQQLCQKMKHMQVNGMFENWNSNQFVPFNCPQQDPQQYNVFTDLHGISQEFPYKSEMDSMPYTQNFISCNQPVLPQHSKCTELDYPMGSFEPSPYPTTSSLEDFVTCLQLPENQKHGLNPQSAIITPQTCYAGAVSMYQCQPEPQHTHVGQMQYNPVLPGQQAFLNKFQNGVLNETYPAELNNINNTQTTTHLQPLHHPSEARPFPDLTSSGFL

COc1ccccc1Nc1nn2c(=O)c3ccc(C(=O)NCc4cccnc4)cc3nc2s1
IC50 [1]: 4.9 µM (active)

CC(C)CCCC(C)NCCC(C)C (configuration not stated) [OCTAMYLAMINE]
IC50 [2]: > 40 µM (inactive)
IC50 [3]: > 33.3 µM (inactive)
IC50 [4]: > 40 µM (inactive)

Cn1c(CCN2CCCC2)nc2cc(NS(=O)(=O)c3ccc(Cl)cc3)ccc21
AC50 [5]: 18.9 µM (active)
AC50 [6]: 12.8 µM (active)
AC50 [7]: > 100 µM (inactive)
AC50 [8]: 20.2 µM (active)
AC50 [9]: 46.1 µM (active)
AC50 [10]: 52.5 µM (active)
AC50 [11]: 26.9 µM (active)
AC50 (Paired box protein Pax-8): 6.57 µM (active)
AC50 [12]: 16.8 µM (active)
AC50 [13]: 72.5 µM (active)

CCc1cnc(N2[C@@H](C#N)[C@@H](c3ccc(C#CC(C)C)cc3)[C@@H]2CO)s1
AC50 [6]: 35.3 µM (active)
AC50 [7]: 39.6 µM (active)
AC50 [8]: > 70 µM (inactive)
AC50 [10]: 29.4 µM (active)
AC50 (Paired box protein Pax-8): 15.4 µM (active)
AC50 [12]: 23.6 µM (active)
AC50 [13]: 24.7 µM (active)

CC(=C(CCOC(=O)C(C)C)SSC(CCOC(=O)C(C)C)=C(C)N(C=O)Cc1cnc(C)nc1N)N(C=O)Cc1cnc(C)nc1N [SULBUTIAMINE]
IC50 [2]: 2.39 µM (active)
IC50 [3]: > 33.3 µM (inactive)
IC50 [4]: > 40 µM (inactive)

O=C(Nc1ccc2c(c1)OCO2)c1ccncc1
EC50 [14]: 25.3 µM (not active)

COc1ccc(Br)cc1CNc1ccc(O)cc1
IC50 (Protein Tat): 46.7 µM (inconclusive)
IC50 [15]: 26.8 µM (active)
CC50 [16]: > 40 µM (active)

Cc1ccc(C(=O)N/N=C\c2cc(Br)c(Br)o2)cn1
IC50 [17]: > 66 µM (inactive)
EC50 (Protein RecA): > 380 µM (inconclusive)
CC50 [16]: 18.2 µM (active)
IC50 [18]: 46.3 µM (inactive)
